Measured values: patent EP1586565A1, “Substituted polycyclic aryl and heteroaryl pyrazinones useful for selective inhibition of the coagulation cascade” (Pharmacia Corporation, priority 1999, dated 2000)

biological target: T1, Human factor Xa (Homo sapiens, UniProt P00742); assay: Xa Assay; assay type: biochemical; conditions: 100 µM
T1 construct: leads from XII to XIIa to XIa to IXa and to the conversion of X to Xa; purchased Enzyme Research Laboratories, South Bend IN
T1 sequence (P00742 235-488 limits assumed): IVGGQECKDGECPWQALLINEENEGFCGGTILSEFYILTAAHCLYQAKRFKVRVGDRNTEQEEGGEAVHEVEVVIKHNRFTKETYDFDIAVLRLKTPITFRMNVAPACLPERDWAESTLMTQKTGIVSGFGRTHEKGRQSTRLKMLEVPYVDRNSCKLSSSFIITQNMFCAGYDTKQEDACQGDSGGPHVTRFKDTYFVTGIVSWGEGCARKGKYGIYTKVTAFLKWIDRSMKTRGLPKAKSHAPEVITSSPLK
T1 sequence (P00742 41-179 limits assumed): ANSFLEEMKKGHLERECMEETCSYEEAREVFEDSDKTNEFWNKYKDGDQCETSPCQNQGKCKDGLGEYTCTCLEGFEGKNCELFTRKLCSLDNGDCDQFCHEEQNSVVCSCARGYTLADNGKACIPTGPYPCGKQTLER

% Inhibition Factor Xa (100 µM) [%]	Structure (SMILES)
3	O=C(Cn1c(-c2cccc(Cl)c2)c(Cl)nc(NCCc2ccc(Cl)cc2)c1=O)NCCc1cccnc1 [Example E-0083]
0	COc1ccc(-c2c(Cl)nc(NCCc3cccc(Cl)c3)c(=O)n2CC(=O)NCCc2ccncc2)cc1 [Example E-0035]
0	O=C(Cn1c(-c2ccc(Cl)cc2)c(Cl)nc(NCCc2cccnc2)c1=O)NCCc1ccncc1 [Example E-0029]
0	O=C(Cn1c(-c2ccc(-c3ccccc3)cc2)c(Cl)nc(NCCc2ccccc2)c1=O)NCCc1ccncc1 [Example E-0050]
3	COc1ccc(-c2c(Cl)nc(NCCc3ccc(Cl)cc3)c(=O)n2CC(=O)NCCc2ccncc2)cc1 [Example E-0106]
6	COc1ccc(-c2c(Cl)nc(NCCc3ccccc3)c(=O)n2CC(=O)NCCc2ccncc2)cc1 [Example E-0100]
0	O=C(Cn1c(-c2ccc(Cl)cc2)c(Cl)nc(NCCc2cccc(Cl)c2)c1=O)NCCc1ccncc1 [Example E-0027]
3	O=C(Cn1c(-c2ccc(-c3ccccc3)cc2)c(Cl)nc(NCc2ccccc2)c1=O)NCCc1ccncc1 [Example E-0109]
4	O=C(Cn1c(-c2cccc(Cl)c2)c(Cl)nc(NCCc2ccccc2)c1=O)NCCc1cccnc1 [Example E-0089]
3	O=C(Cn1c(-c2ccc(-c3ccccc3)cc2)c(Cl)nc(NCCc2ccc(Cl)cc2)c1=O)NCCc1ccncc1 [Example E-0118]

same assay, conditions: % inhibition at 30 µM (cells with % or %@30, bare 0)

Structure (SMILES)	IC50 or % Inhibition Factor Xa (30 µM)
N=C(N)c1ccc(CNC(=O)Cn2c(-c3cccc(Cl)c3)c(Cl)nc(NCc3ccncc3)c2=O)cc1 [1471-27]	16%
N=C(N)c1ccc(CNC(=O)Cn2c(-c3ccc(Cl)cc3)c(Cl)nc(NCCc3cccc(Cl)c3)c2=O)cc1 [1471-22]	28%
CN(C)CCCNc1nc(Cl)c(-c2ccccc2)n(CC(=O)NCc2ccc(C(=N)N)cc2)c1=O [1507-47]	19%
N=C(N)c1ccc(CNC(=O)Cn2c(-c3ccccc3)c(Cl)nc(NCCCCc3ccccc3)c2=O)cc1 [1507-43]	21%
N=C(N)c1ccc(CNC(=O)Cn2c(-c3ccccc3)c(Cl)nc(NCc3ccncc3)c2=O)cc1 [1471-11]	9%
N=C(N)c1ccc(CNC(=O)Cn2c(-c3ccccc3)c(Cl)nc(NCCc3ccc(Cl)c(Cl)c3)c2=O)cc1 [1507-44]	9%
N=C(N)c1ccc(CNC(=O)Cn2c(-c3ccc4c(c3)OCO4)c(Cl)nc(NCc3ccncc3)c2=O)cc1 [1471-43]	18%
CCc1c(Cl)nc(NCCc2cccnc2)c(=O)n1CC(=O)NCc1ccc(C(=N)N)cc1 [1471-64]	2%
N=C(N)c1ccc(CNC(=O)Cn2c(-c3ccccc3)c(Cl)nc(NC3CCCCCC3)c2=O)cc1 [1512-16]	10%
N=C(N)c1ccc(CNC(=O)Cn2c(-c3ccccc3)c(Cl)nc(NCCc3ccncc3)c2=O)cc1 [1471-13]	0%
N=C(N)c1ccc(CNC(=O)Cn2c(-c3ccccc3)c(Cl)nc(NC3CCCc4ccccc43)c2=O)cc1 (stereo not drawn) [1507-16]	18%
N=C(N)c1ccc(CNC(=O)Cn2c(-c3ccccc3)c(Cl)nc(NCCC3=CCCCC3)c2=O)cc1 [1507-17]	16%
N=C(N)c1ccc(CNC(=O)Cn2c(-c3ccccc3)c(Cl)nc(NCc3cc(C(F)(F)F)ccc3F)c2=O)cc1 [1512-27]	3%
N=C(N)c1ccc(CNC(=O)Cn2c(-c3ccccc3)c(Cl)nc(NCc3ccccc3Cl)c2=O)cc1 [1507-03]	21%
CCCCNc1nc(Cl)c(-c2ccccc2)n(CC(=O)NCc2ccc(C(=N)N)cc2)c1=O [1512-14]	7%
CN(C)CCNc1nc(Cl)c(-c2ccccc2)n(CC(=O)NCc2ccc(C(=N)N)cc2)c1=O [1512-15]	6%

Structure (SMILES)	IC50 or % Inhibition Factor Xa (30 µM)
N=C(N)c1ccc(CNC(=O)Cn2c(-c3ccccc3)c(Cl)nc(NC3CCCCCC3)c2=O)cc1 [1507-29]	4%
N=C(N)c1ccc(CNC(=O)Cn2c(-c3ccccc3)c(Cl)nc(NCCN3CCOCC3)c2=O)cc1 [1471-12]	9%
CCc1c(Cl)nc(NCCc2ccccc2)c(=O)n1CC(=O)NCc1ccc(C(=N)N)cc1 [1471-63]	2%
COc1ccc(CCNc2nc(Cl)c(-c3ccccc3)n(CC(=O)NCc3ccc(C(=N)N)cc3)c2=O)cc1OC [1512-05]	10%
N=C(N)c1ccc(CNC(=O)Cn2c(-c3ccccc3)c(Cl)nc(NC3CCc4ccccc43)c2=O)cc1 (stereo not drawn) [1507-02]	9%
N=C(N)c1ccc(CNC(=O)Cn2c(-c3ccccc3)c(Cl)nc(NCCCc3ccccc3)c2=O)cc1 [1512-06]	4%
N=C(N)c1ccc(CNC(=O)Cn2c(-c3ccc(Cl)cc3)c(Cl)nc(NCCc3ccccc3)c2=O)cc1 [1471-23]	36%
N=C(N)c1ccc(CNC(=O)Cn2c(-c3ccccc3)c(Cl)nc(NC3CCS(=O)(=O)C3)c2=O)cc1 (stereo not drawn) [1512-19]	3%
CC1CCCC(Nc2nc(Cl)c(-c3ccccc3)n(CC(=O)NCc3ccc(C(=N)N)cc3)c2=O)C1C (stereo not drawn) [1512-23]	6%
COc1cccc(CNc2nc(Cl)c(-c3ccccc3)n(CC(=O)NCc3ccc(C(=N)N)cc3)c2=O)c1OC [1512-02]	3%
N=C(N)c1ccc(CNC(=O)Cn2c(-c3ccccc3)c(Cl)nc(NC3CCC3)c2=O)cc1 [1507-21]	23%
N=C(N)c1ccc(CNC(=O)Cn2c(-c3ccccc3)c(Cl)nc(NCCc3ccc(Cl)cc3)c2=O)cc1 [1471-10]	45%
Cc1c(Cl)nc(NCc2ccccc2)c(=O)n1CC(=O)NCc1ccc(C(=N)N)cc1 [1471-1]	10%
COc1ccc(-c2c(Cl)nc(NCCc3ccc(Cl)cc3)c(=O)n2CC(=O)NCc2ccc(C(=N)N)cc2)cc1 [1471-34]	24%
N=C(N)c1ccc(CNC(=O)Cn2c(-c3ccccc3)c(Cl)nc(NCCc3cccnc3)c2=O)cc1 [1471-16]	23%

The next lines start with the values.

IC50 or % Inhibition Factor Xa (30 µM)	Structure (SMILES)
0%	CSCC(C(=O)NCc1ccc(C(=N)N)cc1)n1c(-c2ccccc2)c(Cl)nc(NCCc2ccccc2)c1=O (stereo not drawn) [1517-16]
0%	C[C@@H](C(=O)NCc1ccc(C(=N)N)cc1)n1c(-c2ccccc2)c(Cl)nc(NCCc2ccccc2)c1=O [1517-15]
0%	N=C(N)c1ccc(CNC(=O)Cn2c(-c3ccsc3)c(Cl)nc(NCc3ccccc3)c2=O)cc1 [1517-01]
0%	N=C(N)c1ccc(CNC(=O)Cn2c(-c3ccsc3)c(Cl)nc(NC3CCC3)c2=O)cc1 [1517-07]
0%	CC(C)CCNc1nc(Cl)c(-c2ccccc2)n(CC(=O)NCc2ccc(C(=N)N)cc2)c1=O [1517-40]
9%	N=C(N)c1ccc(CNC(=O)Cn2c(-c3ccccc3)c(Cl)nc(NCc3cc(F)ccc3F)c2=O)cc1 [1512-36]
0%	C[C@H](C(=O)NCc1ccc(C(=N)N)cc1)n1c(-c2ccccc2)c(Cl)nc(NC2CCC2)c1=O [1517-11]
0%	CCCCCNc1nc(Cl)c(-c2ccccc2)n(CC(=O)NCc2ccc(C(=N)N)cc2)c1=O [1517-48]
9%	CC(C)Nc1nc(Cl)c(-c2cccnc2)n(CC(=O)NCc2ccc(C(=N)N)cc2)c1=O [compound 75]
0%	C[C@H](C(=O)NCc1ccc(C(=N)N)cc1)n1c(-c2ccccc2)c(Cl)nc(NCCc2ccccc2)c1=O [1517-17]
0%	CC(C)Nc1nc(Cl)c(-c2cccc(N)c2)n(CC(=O)NCc2ccc(C(=N)N)c(F)c2)c1=O [Example 42]
12%	CC(C)Nc1nc(Cl)c(-c2cccc(C(=O)O)c2)n(CC(=O)NCc2ccc(C(=N)N)cc2)c1=O [Example 65]
0%	N=C(N)c1ccc(CNC(=O)Cn2c(-c3ccccc3)c(Cl)nc(NC3CCCCC3)c2=O)cc1 [1517-25]
0%	N=C(N)NC/C=C\CNC(=O)Cn1c(-c2ccccc2)cnc(NCCc2ccccc2)c1=O [Example 37]
1%	N=C(N)c1ccc(CNC(=O)Cn2c(-c3ccccc3)c(Cl)nc(NCc3ccccc3OC(F)(F)F)c2=O)cc1 [1512-42]
0%	CC(C)Nc1nc(Cl)c(-c2cc(N)ccc2F)n(CC(=O)NCc2ccc(C(=N)N)cc2F)c1=O [compound 73]
9%	N=C(N)c1ccc(CNC(=O)Cn2c(-c3ccccc3)c(Cl)nc(NCc3c(F)cccc3F)c2=O)cc1 [1512-43]
6%@30	N=C(N)c1ccc(CNC(=O)Cn2c(Cc3ccccc3)c(Cl)nc(NCCc3ccccc3)c2=O)cc1 [Example 20]
0%	N=C(N)c1ccc(CNC(=O)Cn2c(-c3c(Cl)cccc3Cl)c(Cl)nc(NCCc3cccc(Cl)c3)c2=O)cc1 [1517-24]
0%	N=C(N)c1ccc(CNC(=O)Cn2c(-c3ccsc3)c(Cl)nc(NCCc3cccc(Cl)c3)c2=O)cc1 [1517-19]
22%	Nc1n[nH]c2ccc(CNC(=O)Cn3c(-c4ccccc4)cnc(NCCc4ccccc4)c3=O)cc12 [Example 38]
0%	CSc1ccc(N)cc1-c1c(Cl)nc(NC(C)C)c(=O)n1CC(=O)NCc1ccc(C(=N)N)cc1 [compound 76]
0%	CC(C)Nc1ncc(-c2cccc(N)c2)n(CC(=O)NCc2ccc(C(=N)N)c(F)c2)c1=O [Example 43]
0%	N=C(N)c1ccc(CNC(=O)Cn2c(-c3c(Cl)cccc3Cl)c(Cl)nc(NCCc3ccccc3)c2=O)cc1 [1517-18]
19%	COC(=O)c1cccc(-c2c(Cl)nc(NC(C)C)c(=O)n2CC(=O)NCc2ccc(C(=N)N)cc2)c1 [Example 64]
